Test results as given in patent US9447029B2, “Fluorinated arylalkylaminocarboxamide derivatives” (NEWRON PHARMACEUTICALS S.P.A., priority 2011, dated 2016).
pIC50: −log10 of the molar value. Where a name gives a salt, the structure may show the parent alone.

Key:
[1] = target: CYP2D6 (Homo sapiens (Human), UniProt P10635); assay: Inhibition of Cytochrome P4502D6 (CYP2D6) using Supersomes; format: in vitro ADME; details: AMMC substrate, read-out: IC50 (Fluorinated derivative)
Method: The inhibition of Cytochrome P4502D6 (CYP2D6) is assessed by performing in vitro inhibition studies using Supersomes, microsomes derived from baculovirus infected insect cells; the baculoviruses are engineered to express one or more drug metabolizing enzyme cDNAs. Supersomes catalyze the same enzymatic reactions as human liver microsome enzymes, but they contain much higher enzyme activity than other microsome sources (Crespi C. L. and Penman B. W., Advances Pharmacology, 43, 171-188 (1997); Crespi C. L. and Miller V. P., Analytical Biochemistry, 248, 188-190 (1997)).
Kits with Supersomes are Supplied by GENTEST (MA, USA).
Test compound is dissolved in DMSO 500× the highest final concentration desired in the IC50 assay. 30 ml of deionized water is pre-warmed to 37° C. and all kit components are placed on ice. For each well of column 1, 149.4 μL of NADPH-Cofactor Mix, (187.5 μl of Cofactors, 150 μl of G6PDH, 100 μl of Control Protein and 14.56 ml of 37° C. water) are added.
In each well from Column 2 to 12, 100 μl of Cofactor/DMSO mix (40 μL DMSO in 9.96 ml of NADPH-Cofactor Mix) are added. To each well of column 1, 0.6 μl of test compound or positive control are added. 50 μl from each well of column 1 are serially diluted to column 8. The extra 50 μl from column 8 are discarded. The plate is covered and pre-incubated at 37° C. for 10 minutes.
Preparation of enzyme/substrate mix: 7.92 ml of pre-warmed deionized water, 75 μl of enzyme, 3 μl of 10 mM AMMC and 2 ml of pre-warmed buffer are mixed.
After the pre-incubation time (10′), 100 μl of enzyme/substrate mix to each well from column 1 to 10 are added. The plate is incubated at 37° C. for 30 minutes. After this time, 75 μl of Stop Reagent to each well are added. For blank controls, 100 μl of enzyme/substrate mix are added to columns 11 and 12.
Plates are read at the Victor plate reader (Perkin Elmer, MA—USA) at 390 nm excitation and 460 nm emission wavelengths.

[2] = test system: TTXs sodium channels (ND7/23 cells); assay: TTXs-sodium channel influx assay (fluorescence, membrane potential kit); format: cell-based, rat; details: veratridine 100 μM
Method: ND7/23 rat dorsal root ganglion-derived cell line endogenously expresses a mixed population of TTXs sodium channels (such as Nav1.3, Nav1.2, Nav1.1, Nav1.6). These cells lack of TTXr sodium channels as shown by the absence of their respective transcripts. ND7/23 cells are grown in Dulbecco's Modified Eagle Medium (DMEM, Invitrogen, CA—USA) supplemented with 10% Foetal Bovine Serum (FBS, Invitrogen, CA—USA) and 1 mM sodium piruvate. The cells are seeded at 50,000 cells/well on 96 poly-L-lysine-coated plates and further incubated for 18-24 h before use.
The Membrane Potential Kit Assay (Molecular Devices, CA—USA), based on a negatively charged fluorescent dye able to monitor changes in membrane potential caused by the sodium influx due to the channel opening, is used for the assay.
Cells are incubated with the dye loading for 30 minutes at 25° C. Then, 100 nM of the toxin Anemonia sulcata (used as enhancer of the channel opener response) alone or in the presence of TTX (as reference standard) or test compound are added for further 15 minutes.
The fluorescence (excitation: 530 nm, emission: 565 nm wavelength) is measured before and after (40-45 s) the automated injection of the sodium channel opener veratridine (100 μM) using a Victor plate reader (Perkin Elmer, MA—USA).
The inhibition curves are calculated from 5 concentrations, each in triplicate, and the IC50 determined using a linear regression analysis.
The results, obtained with some compounds which are representative of the entire class of compounds of the invention are reported in Table 1.

Chain of CYP2D6 (P10635 whole entry): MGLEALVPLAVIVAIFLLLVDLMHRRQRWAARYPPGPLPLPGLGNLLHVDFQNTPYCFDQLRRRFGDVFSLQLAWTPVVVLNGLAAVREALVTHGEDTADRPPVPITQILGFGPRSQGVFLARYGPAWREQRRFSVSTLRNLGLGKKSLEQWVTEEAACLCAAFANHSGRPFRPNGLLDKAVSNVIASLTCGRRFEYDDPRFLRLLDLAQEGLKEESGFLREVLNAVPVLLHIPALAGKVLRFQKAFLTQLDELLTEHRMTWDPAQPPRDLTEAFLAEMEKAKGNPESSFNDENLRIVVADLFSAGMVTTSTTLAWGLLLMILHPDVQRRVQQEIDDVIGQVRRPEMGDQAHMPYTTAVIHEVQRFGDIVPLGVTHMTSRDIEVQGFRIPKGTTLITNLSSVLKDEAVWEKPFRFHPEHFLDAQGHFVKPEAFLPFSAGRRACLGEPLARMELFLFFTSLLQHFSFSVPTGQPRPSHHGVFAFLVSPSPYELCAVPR

**Q.** With `CCCCOc1cccc(C(F)(F)CNCC(=O)N(CCC)CCC)c1` [Example 1-3, 2-[2,2-Difluoro-2-(3-butoxyphenyl)-ethylamino]-N,N-dipropyl-acetamide, hydrochloride] as the molecule, how does the pIC50 [1] read?
**A.** 4.62

**Q.** What about the pIC50 [2] of the same molecule?
**A.** 6.24
